Results reported in patent US20030139391A1 (priority 2000, published 2003).

System: Patients diagnosed with Alzheimer's Disease
Assay: Adverse events and discontinuation in 5-month slow-titration trial
Assay type: in vivo, human
Description: Subjects in the Placebo group received 21 weeks (5 months) of placebo medication.
The safety of the drug was also monitored throughout the study. Blood samples for biochemistry and haematology and random urine sample for urinalysis were taken at each visit and at completion for all efficacy testing. Systolic and diastolic blood pressure were measured in the sitting position, pulse and vital signs were recorded at each visit.

SMILES: COc1ccc2c3c1O[C@H]1C[C@@H](O)C=C[C@@]31CCN(C)C2 [GAL, galantamine]
- Serious adverse event Cardiac failure: number (16 mg/day): 3
- Serious adverse event Dehydration: % (16 mg/day): (1.1%)
- Serious adverse event Dehydration: number (16 mg/day): 3
- Serious adverse event Diarrhea: % (16 mg/day): (1.1%)
- Serious adverse event Diarrhea: number (16 mg/day): 3
- Serious adverse event Dyspnea: % (16 mg/day): (0.7%)
- Serious adverse event Dyspnea: number (16 mg/day): 2
- Serious adverse event Fall: % (16 mg/day): (0.4%)
- Serious adverse event Fall: number (16 mg/day): 1
- Serious adverse event Gi haemorrhage: % (16 mg/day): (0.0%)
- Serious adverse event Gi haemorrhage: number (16 mg/day): 0
- Serious adverse event Injury: % (16 mg/day): (0.4%)
- Serious adverse event Injury: number (16 mg/day): 1
- Serious adverse event Myocardial infarction: % (16 mg/day): (0.4%)
- Serious adverse event Myocardial infarction: number (16 mg/day): 1
- Serious adverse event Nausea: % (16 mg/day): (0.7%)
- Serious adverse event Nausea: number (16 mg/day): 2
- Serious adverse event Pneumonia: % (16 mg/day): (0.7%)
- Serious adverse event Pneumonia: number (16 mg/day): 2
- Serious adverse event Sepsis: % (16 mg/day): (0.0%)
- Serious adverse event Sepsis: number (16 mg/day): 0
- Serious adverse event Surgical intervention: % (16 mg/day): (1.1%)
- Serious adverse event Surgical intervention: number (16 mg/day): 3
- Serious adverse event Syncope: % (16 mg/day): (1.4%)
- Serious adverse event Syncope: number (16 mg/day): 4
- Serious adverse event Thrombophlebitis deep: % (16 mg/day): (0.0%)
- Serious adverse event Thrombophlebitis deep: number (16 mg/day): 0
- Serious adverse event Transient ischemic attack: % (16 mg/day): (0.7%)
- Serious adverse event Transient ischemic attack: number (16 mg/day): 2
- Serious adverse event Urinary tracq infection: % (16 mg/day): (0.7%)
- Serious adverse event Urinary tracq infection: number (16 mg/day): 2
- Serious adverse event Vomiting: % (16 mg/day): (0.7%)
- Serious adverse event Vomiting: number (16 mg/day): 2
- Syncope: % of patients (16 mg/day): (1.8%)
- Syncope: number of patients (16 mg/day): 5
- Total discontinued (DC): % (16 mg/day): 22%
- Total discontinued (DC): N (16 mg/day): 60
- Total patients with any SAE: % (16 mg/day): (10.0%)
- Total patients with any SAE: number (16 mg/day): 28
- Urinary tract infection: % of patients (16 mg/day): (8.2%)
- Urinary tract infection: number of patients (16 mg/day): 23
- Vomiting: % of patients (16 mg/day): (6.1%)
- Vomiting: number of patients (16 mg/day): 17
- Weight decrease: % of patients (16 mg/day): (5.4%)
- Weight decrease: number of patients (16 mg/day): 15
- Agitation: % of patients (24 mg/day): (8.1%)
- Agitation: number of patients (24 mg/day): 22
- Anorexia: % of patients (24 mg/day): (8.8%)
- Anorexia: number of patients (24 mg/day): 24
- Bradycardia: % of patients (24 mg/day): (2.9%)
- Bradycardia: number of patients (24 mg/day): 8
- Convulsions: % of patients (24 mg/day): (0.4%)
- Convulsions: number of patients (24 mg/day): 1
- DC due to adverse event: % (24 mg/day): 10%
- DC due to adverse event: N (24 mg/day): 27
- DC due to inefficacy: % (24 mg/day): 1%
- DC due to inefficacy: N (24 mg/day): 2
- Depression: % of patients (24 mg/day): (8.%)
- Depression: number of patients (24 mg/day): 22
- Diarrhea: % of patients (24 mg/day): (5.5%)
- Diarrhea: number of patients (24 mg/day): 15
- Dizziness: % of patients (24 mg/day): (7.0%)
- Dizziness: number of patients (24 mg/day): 19
- Dyspepsia: % of patients (24 mg/day): (5.5%)
- Dyspepsia: number of patients (24 mg/day): 15
- Edema peripheral: % of patients (24 mg/day): (2.6%)
- Edema peripheral: number of patients (24 mg/day): 7
- Fall: % of patients (24 mg/day): (4.4%)
- Fall: number of patients (24 mg/day): 12
- Fatigue: % of patients (24 mg/day): (4.8%)
- Fatigue: number of patients (24 mg/day): 13
- Headache: % of patients (24 mg/day): (4.8%)
- Headache: number of patients (24 mg/day): 13
- Injury: % of patients (24 mg/day): (5.9%)
- Injury: number of patients (24 mg/day): 16
- Muscle weakness: % of patients (24 mg/day): (0.4%)
- Muscle weakness: number of patients (24 mg/day): 1
- Nausea: % of patients (24 mg/day): (16.5%)
- Nausea: number of patients (24 mg/day): 45
- Rhinitis: % of patients (24 mg/day): (4.0%)
- Rhinitis: number of patients (24 mg/day): 11
- Serious adverse event Abdominal pain: % (24 mg/day): (0.0%)
- Serious adverse event Abdominal pain: number (24 mg/day): 0
- Serious adverse event Agitation: % (24 mg/day): (0.0%)
- Serious adverse event Agitation: number (24 mg/day): 0
- Serious adverse event Asthenia: % (24 mg/day): (0.4%)
- Serious adverse event Asthenia: number (24 mg/day): 1
- Serious adverse event Basal cell carcinoma: % (24 mg/day): (0.7%)
- Serious adverse event Basal cell carcinoma: number (24 mg/day): 2
- Serious adverse event Breast neoplasm female: % (24 mg/day): (0.0%)
- Serious adverse event Breast neoplasm female: number (24 mg/day): 0
- Serious adverse event Cardiac failure: % (24 mg/day): (0.0%)
- Serious adverse event Cardiac failure: number (24 mg/day): 0
- Serious adverse event Dehydration: % (24 mg/day): (0.0%)
- Serious adverse event Dehydration: number (24 mg/day): 0
- Serious adverse event Diarrhea: % (24 mg/day): (0.0%)
- Serious adverse event Diarrhea: number (24 mg/day): 0
- Serious adverse event Dyspnea: % (24 mg/day): (1.1%)
- Serious adverse event Dyspnea: number (24 mg/day): 3.
- Serious adverse event Fall: % (24 mg/day): (1.1%)
- Serious adverse event Fall: number (24 mg/day): 3
- Serious adverse event Gi haemorrhage: % (24 mg/day): (0.7%)
- Serious adverse event Gi haemorrhage: number (24 mg/day): 2
- Serious adverse event Injury: % (24 mg/day): (1.8%)
- Serious adverse event Injury: number (24 mg/day): 5
- Serious adverse event Myocardial infarction: % (24 mg/day): (0.4%)
- Serious adverse event Myocardial infarction: number (24 mg/day): 1
- Serious adverse event Nausea: % (24 mg/day): (0.0%)
- Serious adverse event Nausea: number (24 mg/day): 0
- Serious adverse event Pneumonia: % (24 mg/day): (1.1%)
- Serious adverse event Pneumonia: number (24 mg/day): 3
- Serious adverse event Sepsis: % (24 mg/day): (0.0%)
- Serious adverse event Sepsis: number (24 mg/day): 0
- Serious adverse event Surgical intervention: % (24 mg/day): (0.0%)
- Serious adverse event Surgical intervention: number (24 mg/day): 0
- Serious adverse event Syncope: % (24 mg/day): (1.8%)
- Serious adverse event Syncope: number (24 mg/day): 5
- Serious adverse event Thrombophlebitis deep: % (24 mg/day): (0.7%)
- Serious adverse event Thrombophlebitis deep: number (24 mg/day): 2
- Serious adverse event Transient ischemic attack: % (24 mg/day): (0.0%)
- Serious adverse event Transient ischemic attack: number (24 mg/day): 0
- Serious adverse event Urinary tracq infection: % (24 mg/day): (0.0%)
- Serious adverse event Urinary tracq infection: number (24 mg/day): 0
- Serious adverse event Vomiting: % (24 mg/day): (0.4%)
- Serious adverse event Vomiting: number (24 mg/day): 1
- Syncope: % of patients (24 mg/day): (3.3%)
- Syncope: number of patients (24 mg/day): 9
- Total discontinued (DC): % (24 mg/day): 22%
- Total discontinued (DC): N (24 mg/day): 61
- Total patients with any SAE: % (24 mg/day): (12.8%)
- Total patients with any SAE: number (24 mg/day): 35
- Urinary tract infection: % of patients (24 mg/day): (8.1%)
- Urinary tract infection: number of patients (24 mg/day): 22
- Vomiting: % of patients (24 mg/day): (9.9%)
- Vomiting: number of patients (24 mg/day): 27
- Weight decrease: % of patients (24 mg/day): (4.8%)
- Weight decrease: number of patients (24 mg/day): 13
